Experimental data: patent US11441138B2, “Method for selection of high M6P recombinant proteins” (Amicus Therapeutics, Inc., priority 2016, dated 2022)
Like-named read-outs stand apart in the source and are kept apart here. Blank lines part the entries; values can stand above or below the molecule they belong to.

Legend:
GAA KO mice [1] = experiment: Muscle function in Gaa-knockout mice, longer-term studies; type: in vivo, mouse
[2] = tested on: normal and Pompe fibroblast cell lines; experiment: Cellular uptake of rhGAA by fibroblasts (16-hr incubation, 4MU-α-Glucoside hydrolysis); type: cell-based; settings: for concentration that saturates cellular receptors: normal and Pompe fibroblasts, 16-hr incubation
Description: The relative cellular uptake of ATB200 and Lumizyme® rhGAA were compared using normal and Pompe fibroblast cell lines. […] After 16-hr incubation, external rhGAA was inactivated with TRIS base and cells were washed 3-times with PBS prior to harvest. Internalized GAA measured by 4MU-α-Glucoside hydrolysis and was graphed relative to total cellular protein and the results appear in FIGS. 13A-13B.

CIMPR [3] = target: T1, CIMPR (Homo sapiens, UniProt P11717); experiment: CIMPR affinity chromatography of rhGAA (bound vs unbound GAA activity); type: binding; settings: for CIMPR binding compared with ATB200 rhGAA: FIGS. 4A, 4B, 7A, 7B; for rhGAA bound to CIMPR / containing M6P (eluted with M6P) / rhGAA that did not bind to the CIMPR (GAA activity eluted prior to addition of M6P): fraction of total enzyme by GAA activity
T1 sequence (P11717 41-2491, species assumed): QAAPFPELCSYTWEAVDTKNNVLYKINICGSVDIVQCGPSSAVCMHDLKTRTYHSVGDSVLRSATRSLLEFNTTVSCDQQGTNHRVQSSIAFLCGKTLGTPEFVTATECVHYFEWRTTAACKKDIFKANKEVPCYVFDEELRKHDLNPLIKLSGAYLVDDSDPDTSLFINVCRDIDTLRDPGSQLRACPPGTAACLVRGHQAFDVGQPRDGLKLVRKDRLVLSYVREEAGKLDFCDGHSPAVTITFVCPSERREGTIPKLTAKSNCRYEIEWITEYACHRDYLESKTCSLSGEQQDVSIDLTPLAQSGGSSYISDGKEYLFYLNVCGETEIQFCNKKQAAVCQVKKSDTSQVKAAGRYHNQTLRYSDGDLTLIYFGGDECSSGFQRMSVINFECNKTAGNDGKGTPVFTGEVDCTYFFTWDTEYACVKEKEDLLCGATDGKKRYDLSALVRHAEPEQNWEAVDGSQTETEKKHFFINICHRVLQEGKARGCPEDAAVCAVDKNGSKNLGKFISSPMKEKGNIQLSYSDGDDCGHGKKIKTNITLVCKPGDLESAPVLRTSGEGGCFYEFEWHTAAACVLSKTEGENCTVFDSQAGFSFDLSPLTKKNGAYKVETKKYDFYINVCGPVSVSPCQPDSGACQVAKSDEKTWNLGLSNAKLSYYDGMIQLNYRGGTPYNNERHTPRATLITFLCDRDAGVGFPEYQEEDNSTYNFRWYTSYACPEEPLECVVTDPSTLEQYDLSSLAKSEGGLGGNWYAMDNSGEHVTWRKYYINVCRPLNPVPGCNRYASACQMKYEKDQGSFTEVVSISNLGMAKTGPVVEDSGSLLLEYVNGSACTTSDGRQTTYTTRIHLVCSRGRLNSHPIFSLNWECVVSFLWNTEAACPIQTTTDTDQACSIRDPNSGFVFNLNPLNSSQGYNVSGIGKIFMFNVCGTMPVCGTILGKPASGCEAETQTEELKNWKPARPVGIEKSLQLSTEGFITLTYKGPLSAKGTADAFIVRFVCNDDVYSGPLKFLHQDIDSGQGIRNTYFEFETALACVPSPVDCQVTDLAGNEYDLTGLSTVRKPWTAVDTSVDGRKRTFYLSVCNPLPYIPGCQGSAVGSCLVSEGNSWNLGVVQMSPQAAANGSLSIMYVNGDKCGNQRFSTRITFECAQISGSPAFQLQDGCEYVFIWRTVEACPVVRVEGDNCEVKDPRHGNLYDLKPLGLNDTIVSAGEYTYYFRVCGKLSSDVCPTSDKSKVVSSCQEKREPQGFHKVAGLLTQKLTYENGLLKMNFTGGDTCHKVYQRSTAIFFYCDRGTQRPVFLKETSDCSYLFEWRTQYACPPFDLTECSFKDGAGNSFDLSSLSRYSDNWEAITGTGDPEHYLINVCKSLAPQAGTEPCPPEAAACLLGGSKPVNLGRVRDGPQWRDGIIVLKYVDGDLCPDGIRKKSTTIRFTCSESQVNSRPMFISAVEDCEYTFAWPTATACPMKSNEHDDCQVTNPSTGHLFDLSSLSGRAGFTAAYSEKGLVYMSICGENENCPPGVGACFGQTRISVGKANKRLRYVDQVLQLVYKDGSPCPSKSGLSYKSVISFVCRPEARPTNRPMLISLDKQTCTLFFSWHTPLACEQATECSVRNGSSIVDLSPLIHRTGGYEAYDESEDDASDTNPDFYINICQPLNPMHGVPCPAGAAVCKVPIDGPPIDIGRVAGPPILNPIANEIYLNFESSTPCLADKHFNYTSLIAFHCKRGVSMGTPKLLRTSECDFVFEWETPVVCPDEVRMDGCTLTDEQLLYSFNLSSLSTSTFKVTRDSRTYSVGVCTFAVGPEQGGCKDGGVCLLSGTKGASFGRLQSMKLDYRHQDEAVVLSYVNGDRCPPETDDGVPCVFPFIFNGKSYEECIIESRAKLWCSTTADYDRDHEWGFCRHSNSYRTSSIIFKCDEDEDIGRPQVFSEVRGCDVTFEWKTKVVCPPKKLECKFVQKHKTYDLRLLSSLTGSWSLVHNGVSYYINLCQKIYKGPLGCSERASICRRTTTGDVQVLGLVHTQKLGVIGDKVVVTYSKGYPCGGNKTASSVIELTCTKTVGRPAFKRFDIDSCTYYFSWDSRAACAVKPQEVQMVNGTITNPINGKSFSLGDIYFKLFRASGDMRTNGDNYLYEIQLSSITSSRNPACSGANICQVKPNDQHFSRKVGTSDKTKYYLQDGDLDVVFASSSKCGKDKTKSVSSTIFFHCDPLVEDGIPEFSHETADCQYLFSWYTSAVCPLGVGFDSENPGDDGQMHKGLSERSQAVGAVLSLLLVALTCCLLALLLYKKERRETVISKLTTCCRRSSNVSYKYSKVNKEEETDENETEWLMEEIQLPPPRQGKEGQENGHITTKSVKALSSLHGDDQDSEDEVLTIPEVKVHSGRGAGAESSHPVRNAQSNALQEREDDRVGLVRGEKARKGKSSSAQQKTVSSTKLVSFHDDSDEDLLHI
Description: To evaluate the ability of the rhGAA in Myozyme® and Lumizyme®, the only currently approved treatments for Pompe disease, these rhGAA preparations were injected onto a CIMPR column (which binds rhGAA having M6P groups) and subsequently eluted with a free […] gradient. Fractions were collected in 96-well plate and GAA activity assayed by 4MU-α-glucose substrate. The relative amounts of bound and unbound rhGAA were determined based on GAA activity and reported as the fraction of total enzyme.
Multiple batches of the rhGAA according to the invention were produced in shake flasks and in perfusion bioreactors using CHO cell line GA-ATB-200 and CIMPR binding was measured.

CIMPR [4] = target: T1, CIMPR; experiment: CIMPR plate binding assay
Description: In addition to having a greater percentage of rhGAA that can bind to the CIMPR, it is important to understand the quality of that interaction. […] Briefly, CIMPR-coated plates were used to capture GAA. Varying concentrations of rhGAA were applied to the immobilized receptor and unbound rhGAA was washed off. The amount of remaining rhGAA was determined by GAA activity.

[5] = Apparent plasma half-life in vivo
Gaa knockout mice [6] = experiment: Muscle physiology and morphology in Gaa-knockout mice; type: in vivo, mouse; settings: rhGAA 20 mg/kg IV every other week; miglustat 10 mg/kg oral 30 mins prior; compared to alglucosidase alfa
Description: Control mice were treated with vehicle alone. Soleus, quadriceps and diaphragm tissue is harvested two weeks after the last dose of recombinant human acid α-glucosidase. […] Semi-thin sections of quadriceps muscle embedded in epoxy resin (Epon) were stained with methylene blue and observed by […] (1000×) to determine the extent of the presence of vacuoles. […] Control mice were treated with vehicle alone. Cardiac muscle tissue was harvested two weeks after the last dose of recombinant human acid α-glucosidase and analyzed for glycogen levels, by staining with periodic acid-Schiff reagent (PAS), and for lysosome proliferation, by measuring levels of LAMP1.

[7] = Phase 1/2 study: plasma total GAA protein pharmacokinetics; design: species or system human; settings: in vivo
[8] = tested on: Pompe fibroblasts and skeletal muscle myoblasts; experiment: Internalization by Pompe fibroblasts and skeletal muscle myoblasts; type: cell-based
Gaa knockout mice [9] = experiment: Glycogen reduction in Gaa knockout mice, two IV bolus administrations; type: in vivo, mouse
From the text: Animals were given two IV bolus administrations (every other week); tissues were harvested two weeks after the last dose and analyzed for acid α-glucosidase activity and glycogen content.

GAA KO mice [10] = experiment: Glycogen clearance in GAA KO mice, 4 injections with or without miglustat (FIG. 15); type: in vivo, mouse; settings: rhGAA 20 mg/kg IV every other week, miglustat 10 mg/kg PO 30 min prior where co-administered, 14 days after last dose
From the text: Tissues were collected 14 days after last enzyme dose for glycogen measurement.

[11] = tested on: adults with Pompe disease; experiment: Phase 1/2 study: safety; type: in vivo, human; settings: no infusion-associated reactions to date
Description: (§1) Mean total GAA protein and miglustat PK results from the first 8 Cohort 1 patients through Visit 9 and the first 2 Cohort 3 patients were assessed.

[12] = tested on: subjects with Pompe disease; settings: cited from earlier work
ATB200 = ATB200 (Homo sapiens, UniProt P10253, H199R/R223H/V780I); experiment: Stabilization of ATB200 by miglustat; settings: neutral pH of plasma
[13] = Phase 1/2 study: plasma miglustat pharmacokinetics; type: in vivo, human; settings: for half-life / Vd/F / AUC(0-inf) / AUC(0-t) / Cmax / Tmax: both sexes, human, plasma, po; for half-life / Vd/F / AUC(0-inf) / AUC(0-t) / Cmax / Tmax / CL/F: plasma miglustat; for half-life / Vd/F / CL/F: arithmetic mean; for Vd/F: read-out: Vz/F; for AUC(0-inf) / AUC(0-t) / Cmax: geometric mean; for Tmax: median
Description: as §1

[14] = 130 mg, Low (about 130 mg oral) MD
[15] = 130 mg, Low (about 130 mg oral) SD
[16] = 260 mg, High (about 260 mg oral) MD
[17] = 260 mg, High (about 260 mg oral) SD

Molecule: Lumizyme®: conventional rhGAA product (alglucosidase alfa) marketed by Genzyme
functional muscle strength (grip strength and wire hang tests) (GAA KO mice [1]; 12 biweekly administrations, ERT 20 mg/kg, miglustat 10 mg/kg, from baseline): decline | uptake efficiency constant (Kuptake) ([2]; extrapolated from uptake curves, FIG. 13C): 56 nM | concentration that saturates cellular receptors [2]: about 250 nM | CIMPR binding compared with ATB200 rhGAA (CIMPR [3]): significantly less CIMPR binding | rhGAA bound to CIMPR / containing M6P (eluted with M6P) (CIMPR [3]): 22% | rhGAA that did not bind to the CIMPR (GAA activity eluted prior to addition of M6P) (CIMPR [3]): 78%

Molecule: [199-arginine,223-histidine]prepro-α-glucosidase (human) [alglucosidase alfa]
apparent plasma half-life (t1/2) [5]: ~1 h | survival in infantile onset Pompe disease ([12]; compared to historical controls): significantly improve survival | effect on 6-Minute Walk Test (6MWT) and forced vital capacity (FVC) in late onset Pompe disease ([12]; compared to placebo): statistically significant, if modest, effect

Further lines, with some results ahead:

Kd (CIMPR [4]; M6P receptor plate binding assays): 2 to 4 nM
Molecule: ATB200: recombinant human acid α-glucosidase with high M6P content, expressed in CHO cells, described in co-pending application PCT/US2015/053252
CIMPR binding compared with Lumizyme® (CIMPR [4]; FIG. 12A): bound to CIMPR significantly better than Lumizyme® | apparent plasma half-life (t1/2) [5]: ~0.75 h | lysosome proliferation (LAMP1) in heart, diaphragm and soleus (Gaa knockout mice [6]): reduction in lysosome proliferation | punctate glycogen levels (PAS) in heart and soleus (Gaa knockout mice [6]): reduction in punctate glycogen levels | intracellular accumulation of dystrophin (GAA KO mice [1]; 6 months of administration, comparison with Lumizyme®): lowered intracellular accumulation of dystrophin | volume of distribution (in words) ([7]; human): relatively high volume of distribution | AUC0-∞ ([7]; human, 5 mg/kg): 218 ng·h/mL | AUC(0-t) ([7]; human, 5 mg/kg): 215 ng·h/mL | Cmax ([7]; human, 5 mg/kg): 61 ng/mL | Tmax ([7]; human, 5 mg/kg): 3.8 h | Vss ([7]; human, 5 mg/kg): 4.62 L | αt1/2 ([7]; human, 5 mg/kg): 1.1 h | βt1/2 ([7]; human, 5 mg/kg): 1.9 h | AUC0-∞ ([7]; human, 10 mg/kg): 584 ng·h/mL | AUC(0-t) ([7]; human, 10 mg/kg): 578 ng·h/mL | Tmax ([7]; human, 10 mg/kg): 4.0 h | αt1/2 ([7]; human, 10 mg/kg): 1.6 h | βt1/2 ([7]; human, 10 mg/kg): 1.6 h | AUC0-∞ ([7]; human, 20 mg/kg): 1512 ng·h/mL | AUC(0-t) ([7]; human, 20 mg/kg): 1508 ng·h/mL | Tmax ([7]; human, 20 mg/kg): 4.0 h | αt1/2 ([7]; human, 20 mg/kg): 1.5 h | βt1/2 ([7]; human, 20 mg/kg): 2.1 h | CLT ([7]; 5 mg/kg): 2.1 L/h | CLT ([7]; 10 mg/kg): 1.59 L/h | CLT ([7]; 20 mg/kg): 1.22 L/h | internalization into normal and Pompe fibroblast cells ([2]; compared with Lumizyme® rhGAA): internalized to a greater degree than conventional Lumizyme® rhGAA | concentration that saturates cellular receptors [2]: about 20 nM | Kuptake [8]: 7 to 14 nM | depletion of tissue glycogen (Gaa knockout mice [9]; 5, 10 and 20 mg/kg, two IV bolus every other week, tissues two weeks after last dose): dose-dependent fashion | reduction of glycogen levels in skeletal muscles (Gaa knockout mice [9]; 10 and 20 mg/kg, compared to Lumizyme® 20 mg/kg): significantly better reduction of glycogen levels | relative reduction of glycogen in quadriceps and triceps skeletal muscle (GAA KO mice [10]): greater reduction of glycogen than Lumizyme® | safety and tolerability overall [11]: safe and well tolerated

CIMPR binding compared with ATB200 rhGAA (CIMPR [3]): significantly less CIMPR binding | rhGAA bound to CIMPR / containing M6P (eluted with M6P) (CIMPR [3]): 27% | rhGAA that did not bind to the CIMPR (GAA activity eluted prior to addition of M6P) (CIMPR [3]): 73%
Molecule: Myozyme®: conventional rhGAA product (alglucosidase alfa) marketed by Genzyme

dose proportionality of plasma miglustat ([13]; 130 mg and 260 mg oral): dose-proportional kinetics | half-life [13, 14]: 5.9 h | Vd/F [13, 14]: 86.7 L | AUC(0-inf) [13, 14]: 13100 ng·h/mL | AUC(0-t) [13, 14]: 12300 ng·h/mL | Cmax [13, 14]: 1520 ng/mL | Tmax [13, 14]: 3 h | half-life [13, 15]: 5.6 h | Vd/F [13, 15]: 85.8 L | AUC(0-inf) [13, 15]: 12600 ng·h/mL | AUC(0-t) [13, 15]: 11800 ng·h/mL | Cmax [13, 15]: 1490 ng/mL | Tmax [13, 15]: 3.5 h | half-life [13, 16]: 5.3 h | Vd/F [13, 16]: 81 L | AUC(0-inf) [13, 16]: 26000 ng·h/mL | AUC(0-t) [13, 16]: 25000 ng·h/mL | Cmax [13, 16]: 3570 ng/mL | Tmax [13, 16]: 3 h | half-life [13, 17]: 5.7 h | Vd/F [13, 17]: 86.3 L | AUC(0-inf) [13, 17]: 25900 ng·h/mL | AUC(0-t) [13, 17]: 24000 ng·h/mL | Cmax [13, 17]: 3060 ng/mL | Tmax [13, 17]: 3.5 h | CL/F ([13]; High (about 260 mg oral) MD): 10.3 L/h | CL/F ([13]; High (about 260 mg oral) SD): 10.6 L/h | CL/F ([13]; Low (about 130 mg oral) MD): 10.2 L/h | CL/F ([13]; Low (about 130 mg oral) SD): 10.6 L/h
Molecule: CCCCN1C[C@H](O)[C@@H](O)[C@H](O)[C@H]1CO [miglustat, (2R,3R,4R,5S)-1-butyl-2-(hydroxymethyl)piperidine-3,4,5-triol]
effect on unfolded ATB200 protein / active conformation (ATB200): decrease the percentage of unfolded ATB200 protein
